One test deals with MV4-11 cells. The test is described as follows: MV4-11 6-Day Cell Growth CTG (CellTiter-Glo) Assay. The format is cell-based. To be noted: Homo sapiens, MV4-11, 144 h, MV4-11 cell growth CellTiter-Glo, 6 days. As for the experimental part:
MV4-11 6-Day Cell Growth CTG (CellTiter-Glo) Assay
Acute myeloid leukemia cell MV4-11 (ATCC® CRL-9591™) was cultured with RPMI 1640 medium (Thermo Fisher Scientific, cat #11875) supplemented with 10% FBS (Thermo Fisher Scientific, cat #10099141) in humidified incubator at 37° C., 5% CO2. To assess the effect of MLL1 inhibition on cell growth, the compound of the present invention was dissolved in DMSO and serially diluted at 1:3 for 12 points starting from 10 mM then 200 nL for the replicate of each dose per well was dispensed to Viewplate-384 Black (Perkin Elmer). Exponentially growing MV4-11 cells were seeded at the density of 300 cells per well in 40 μL to the plate, so the final compound working concentration starts from 50 μM. After 6 days, 40 μL CellTiter-Glo (Promega, cat #G7573) was added into the cell culture well and luminescence was read with Envision (Perkin Elmer) to determine the viable cells. The percentage inhibition was calculated against the samples treated with DMSO only and the data were used for dose response curve fitting in GraphPad Prism to get the IC50 of representative compound of present invention, which reflects the inhibition of MLL1 activity.
Background: ATP-based viability assays read luminescence as a measure of living cells.

A further test relates to H3K4me3 in MV4-11 cells. Put plainly: MV4-11 H3K4me3 Cellular ELISA Assay. The format is cell-based. To be noted: Homo sapiens, MV4-11, 48 h. Here is the method:
MV4-11 H3K4me3 Cellular ELISA Assay
MV4-11 (ATCC® CRL-9591™) was cultured with RPMI1640 medium (Thermo Fisher Scientific, cat #11875) supplemented with 10% FBS (Thermo Fisher Scientific, cat #10099141) and 50 U/ml Penicillin-Streptomycin (Thermo Fisher Scientific, cat #10378016) in humidified incubator at 37° C., 5% CO2.
200 nL compounds dissolved in DMSO were serially diluted at 1:3 ratio for 12 points starting from 10 mM and dispensed into each wells of cell culture plates (PDL-coated ViewPlate-384 Black, FTC, PerkinElmer, #6007710). 3,750 MV4-11 cells in 40 μL culture medium were seeded into each well and treated with desired concentration for 48 hours. After treatment, wash cells with cold phosphate based buffer (PBS, pH 7.4) and aspirate the remaining PBS buffer. Crude histone lysate was extracted by 40 μL 0.5M HCl for 1 hour in 4° C. following neutralization by adding 32 μL neutralization buffer (0.5M Sodium phosphate dibasic, pH ˜12.5, 1.25 mM Dithiothreitol, Promega #V3151, Protease Inhibitor Cocktail, Sigma #8340) for each well. 5 μL and 20 μL of histone lysate was loaded to ELISA plate (384 Well Plates, PE HB, White, 6005620) for detection of total H3 and H3K4me3, respectively. Shake the plates gently in 4° C. for overnight. After histone binding, plates were washed with 80 μL PBS/T (PBS with 0.05% Tween-20) and blocked with 50 μL 3% BSA diluted in PBS/T per well for 1 hour. Incubate wells with primary antibody for 1 hour at room temperature using anti-H3K4me3 (CST #9727) and anti-total H3 (CST #9715) diluted 1:2000 in 3% BSA. Plates were then washed with PBS/T for 3 times and incubated with horseradish peroxidase (HRP) conjugated secondary antibody (CST #7074, 1:5000) for 1 hour at room temperature. The abundance of H3K4me3 and total H3 were measured by ECL substrates chemiluminescence (Pierce, #34080) on a plate reader (PerkinElmer EnVison 2104 Mutilable Reader). Percentage inhibition was calculated against DMSO control after normalization of H3K4me3 signal to H3 signal for individual samples. The data were then fit to a dose response curve using GraphPad Prism for IC50 calculation.

For test [1], the target named is wild type MLL1 four-member complex (MLL1-4C) (Homo sapiens, UniProt Q03164). The test is described as follows: MLL1 LC-MS Assay. To be noted: read-out: LCMS. The format is biochemical. Here is the method: The compounds of the present disclosure were serially and separately diluted 3-fold in DMSO to obtain a total of eight or twelve concentrations. Then the test compounds at each concentration (120 nL of each) were transferred by Mosquito into white Proxiplate plus 384-well microplate (PerkinElmer). Solutions (6 μL) of 60 nM wild type MLL1 four-member complex (MLL1-4C) and 5 μM SAM in the reaction buffer (20 mM Tris-HCl, pH 8.0, 0.01% Tween 20, 1 mM DTT, 10 mM MgCl2, 0.01% BSA) were added to the wells that were then incubated with the test compound for 20 min. A 6 μL solution of 20 μM of the peptide substrate H3K4me0 (histone H3[1-21]-Biotin) in the reaction buffer was added to initiate each reaction. The final components in the reaction solution include 30 nM MLL1-4C, 2.5 μM SAM, and 10 μM H3K4me0 with varying concentration of the compounds. A positive control consisted of 30 nM MLL1-4C, 2.5 μM SAM, and 10 μM substrate in the absence of the test compound, and a negative control consisted of 2.5 μM SAM, and 10 μM substrate only. Each reaction was incubated at rt for 120 min, then stopped by addition of 3 μL per of quench solution (2.5% TFA with 320 nM d4-SAH). The reaction mixture was centrifuged (Eppendorf centrifuge 5810, Rotor A-4-62) for 2 min at 2000 rpm. The SAH production from the enzymatic assays were monitored by LC-MS/MS on an API 4000 triple quadrupole mass spec with Turbolon Spray (Applied Biosystem) coupled with Prominenece UFLC (Shimazu). The level of SAH production were then normalized based on the values coming from the positive and negative controls to give percent enzyme activities. The data were then fit to a dose response equation using the program Helios (Novartis) to get the IC50 values of the test compounds.

Here are results for 25 compounds from patent US20220380371A1, “MLL1 INHIBITORS AND ANTI-CANCER AGENTS” (NOVARTIS AG, priority 2019, published 2022).

Take `C=Cc1cc(Cl)cc(N2CC[C@](N)(c3nc[nH]n3)C2)c1Cn1cnc2c(N)ncnc21` [Example 24]: the IC50 in the test with MV4-11 cells is less than 2000 nM; with H3K4me3 in MV4-11 cells, less than 1900 nM; in test [1] it was less than 50 nM.
The corresponding values for `CCc1cc(Cl)cc(N2CC[C@](N)(c3nc[nH]n3)C2)c1Cn1cnc2c(N)ncnc21` [Example 25] are less than 2000 nM, less than 1900 nM and less than 50 nM.
The corresponding values for `Nc1ncnc2c1ncn2Cc1c(N2CC[C@](N)(c3ccccc3)C2)ccc(F)c1C(F)(F)F` [Example 26] are 2000 to 3000 nM, 1900 to 3000 nM and 50 to 100 nM.
The matching figures for `COC(=O)[C@@]1(N)CCN(c2cc(Cl)cc(C3CCC3)c2Cn2cnc3c(N)ncnc32)C1` [Example 29]: less than 2000 nM, less than 1900 nM and less than 50 nM.
`Nc1ncnc2c1ncn2Cc1c([C@@H](O)C(F)(F)F)cc(Cl)cc1N1CC[C@](N)(C(=O)NC2CC2)C1` [Example 33, (R)-3-amino-1-(2-((6-amino-9H-purin-9-yl)methyl)-5-chloro-3-((R)-2,2,2-trifluoro-1-hydroxyethyl)phenyl)-N-cyclopropylpyrrolidine-3-carboxamide]: the values for the IC50 (with MV4-11 cells; in the test with H3K4me3 in MV4-11 cells; in test [1]) were more than 3000 nM, 1900 to 3000 nM and 50 to 100 nM, respectively.
The corresponding values for `Nc1ncnc2c1ncn2Cc1c(N2CC[C@](N)(C(=O)NC3CC3)C2)ccc(C(F)(F)F)c1Br` [Example 41, (R)-3-amino-1-(2-((6-amino-9H-purin-9-yl)methyl)-3-bromo-4-(trifluoromethyl)phenyl)-N-cyclopropylpyrrolidine-3-carboxamide] are less than 2000 nM, less than 1900 nM and less than 50 nM.
The matching figures for `Nc1ncnc2c1ncn2Cc1c(N2CC[C@](N)(C(=O)NC3CC3)C2)ccc(F)c1CN1CCCCC1` [Example 46]: less than 2000 nM, less than 1900 nM and 50 to 100 nM.
The matching figures for `CN(C)Cc1c(C(F)(F)F)ccc(N2CC[C@](N)(C(=O)NC3CC3)C2)c1Cn1cnc2c(N)ncnc21` [Example 47]: less than 2000 nM, less than 1900 nM and less than 50 nM.
For `CN(Cc1c(F)ccc(N2CC[C@](N)(C(=O)NC3CC3)C2)c1Cn1cnc2c(N)ncnc21)C1CC1` [Example 48], the IC50 is 2000 to 3000 nM in the test with MV4-11 cells, less than 1900 nM in the test with H3K4me3 in MV4-11 cells and more than 100 nM in test [1].
The corresponding values for `CN(C)Cc1c(F)ccc(N2CC[C@](N)(C(=O)N[C@H]3C[C@@H]3c3ccccc3)C2)c1Cn1cnc2c(N)ncnc21` [Example 49] are less than 2000 nM, less than 1900 nM and less than 50 nM.
The corresponding values for `Nc1ncnc2c1ncn2Cc1c(N2CC[C@](N)(C(=O)NC3CC3)C2)ccc(F)c1CN1CC[C@@H](F)C1` [Example 50] are less than 2000 nM, less than 1900 nM and less than 50 nM.
In the case of `Nc1ncnc2c1ncn2Cc1c(N2CC[C@](N)(C(=O)NC3CC3)C2)ccc(F)c1CN1CC(F)C1` [Example 53], the IC50 in the test with MV4-11 cells was less than 2000 nM; in the test on H3K4me3 in MV4-11 cells, less than 1900 nM; in test [1], 50 to 100 nM.
As for `Nc1ncnc2c1ncn2Cc1c(N2CC[C@](N)(C(=O)NC3CC3)C2)ccc(F)c1CNC1CC1` [Example 54], the results for the IC50 (in the test on MV4-11 cells; with H3K4me3 in MV4-11 cells; in test [1]) were less than 2000 nM, less than 1900 nM and more than 100 nM, respectively.
On to `Nc1ncnc2c1ncn2Cc1c(N2CC[C@](N)(C(=O)NC3CC3)C2)ccc(F)c1CN1CCC(F)(F)CC1` [Example 55], for which the IC50 is less than 2000 nM in the test with MV4-11 cells, less than 1900 nM with H3K4me3 in MV4-11 cells and 50 to 100 nM in test [1].
On to `Nc1ncnc2c1ncn2Cc1c(N2CC[C@](N)(C(=O)NC3CC3)C2)ccc(F)c1CN1CCC(F)CC1` [Example 56], for which the IC50 was less than 2000 nM in the test on MV4-11 cells, less than 1900 nM with H3K4me3 in MV4-11 cells and 50 to 100 nM in test [1].
The corresponding values for `Nc1ncnc2c1ncn2Cc1c(N2CC[C@](N)(C(=O)NC3CC3)C2)ccc(F)c1CNCC(F)(F)F` [Example 57] are less than 2000 nM, less than 1900 nM and 50 to 100 nM.
On to `Nc1ncnc2c1ncn2Cc1c(N2CC[C@](N)(C(=O)NC3CC3)C2)ccc(F)c1CN1C[C@H]2CC[C@@H](C1)O2` [Example 58], for which the IC50 with MV4-11 cells was less than 2000 nM; with H3K4me3 in MV4-11 cells it was less than 1900 nM; in test [1] it was 50 to 100 nM.
Regarding `CCN(Cc1c(F)ccc(N2CC[C@](N)(C(=O)NC3CC3)C2)c1Cn1cnc2c(N)ncnc21)C1CC1` [Example 59], the figures for the IC50 (in the test on MV4-11 cells; with H3K4me3 in MV4-11 cells; in test [1]) were less than 2000 nM, less than 1900 nM and less than 50 nM, respectively.
The corresponding values for `CN(C)Cc1c(Cl)ccc(N2CC[C@](N)(C(=O)NC3CC3)C2)c1Cn1cnc2c(N)ncnc21` [Example 60] are less than 2000 nM, less than 1900 nM and 50 to 100 nM.
The matching figures for `Nc1ncnc2c1ncn2Cc1c(N2CC[C@](N)(C(=O)NC3CC3)C2)ccc(F)c1CN1CCCC1` [Example 61]: less than 2000 nM, less than 1900 nM and 50 to 100 nM.
The matching figures for `CC1(C)CCN(Cc2c(F)ccc(N3CC[C@](N)(C(=O)NC4CC4)C3)c2Cn2cnc3c(N)ncnc32)C1` [Example 63]: less than 2000 nM, less than 1900 nM and more than 100 nM.
As to `CC1CN(Cc2c(F)ccc(N3CC[C@](N)(C(=O)NC4CC4)C3)c2Cn2cnc3c(N)ncnc32)C1` [Example 64], the figures for the IC50 (in the test with MV4-11 cells; in the test with H3K4me3 in MV4-11 cells; in test [1]) were less than 2000 nM, less than 1900 nM and 50 to 100 nM, respectively.
The matching figures for `Nc1ncnc2c1ncn2Cc1c(N2CC[C@](N)(C(=O)NC3CC3)C2)ccc(F)c1CN1CCC(F)(F)C1` [Example 66]: less than 2000 nM, less than 1900 nM and less than 50 nM.
The matching figures for `CCN(CC)Cc1c(F)ccc(N2CC[C@](N)(C(=O)NC3CC3)C2)c1Cn1cnc2c(N)ncnc21` [Example 67]: less than 2000 nM, less than 1900 nM and 50 to 100 nM.
The corresponding values for `Nc1ncnc2c1ncn2Cc1c(N2CC[C@](N)(C(=O)NC3CC3)C2)ccc(F)c1CN1CC[C@H](F)C1` [Example 68] are less than 2000 nM, less than 1900 nM and less than 50 nM.
